Source: US8673908B2, “Kynurenine production inhibitor” (Kyowa Hakko Kirin Co., Ltd., priority 2008, dated 2014)
pIC50: −log10 of the molar value.

tested on: kynurenine production in IFN-γ-treated KATO-III cells; test: Inhibitory activity on kynurenine production (Test Example 1); assay type: cell-based; conditions: Homo sapiens, IFN-γ treatment, culture for 96 hours, read-out: IC50 value, inhibition of kynurenine production
In short: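 Read-out is absorbance at 480 nm of medium treated with trichloroacetic acid, then p-dimethylaminobenzaldehyde, to quantify kynurenine. DMSO-only wells with and without IFN-γ serve as references. Cells were KATO-III, 2,000 per well, 96 h at 37 °C/5% CO2 with compound (DMSO ≤0.1%) and IFN-γ at 31.25 ng/mL in the added suspension.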

Row | Structure (SMILES) | pIC50
1 | O=S(=O)(Nc1nc2ccccc2nc1OC(c1ccco1)C(F)(F)F)c1ccccc1Cl (centres unmarked) [Compound 109, 2-chloro-N-{3-[2,2,2-trifluoro-1-(furan-2-yl)ethoxy]-quinoxalin-2-yl}benzenesulfonamide] | > 6.00
2 | O=S(=O)(Nc1nc2ccccc2nc1OC(c1cnc(Cl)s1)C(F)(F)F)c1ccccc1Cl (centres unmarked) [Compound 110, 2-chloro-N-{3-[2,2,2-trifluoro-1-(2-chlorothiazol-5-yl)-ethoxy]quinoxalin-2-yl}benzenesulfonamide] | > 6.00
3 | O=S(=O)(Nc1nc2ccccc2nc1OC(c1cncn1CC1CC1)C(F)(F)F)c1ccccc1Cl (centres unmarked) [Compound 111, 2-chloro-N-{3-[2,2,2-trifluoro-1-(1-cyclopropylmethyl-1H-imidazol-5-yl)ethoxy]quinoxalin-2-yl}benzenesulfonamide] | > 6.00
4 | O=S(=O)(Nc1nc2ccccc2nc1OC(c1cn(CC2CC2)cn1)C(F)(F)F)c1ccccc1Cl (centres unmarked) [Compound 112, 2-chloro-N-{3-[2,2,2-trifluoro-1-(1-cyclopropylmethyl-1H-imidazol-4-yl)ethoxy]quinoxalin-2-yl}benzenesulfonamide] | > 6.00
5 | O=S(=O)(Nc1nc2ccccc2nc1OC(c1cncs1)C(F)(F)F)c1ccccc1Cl (centres unmarked) [Compound 113, 2-chloro-N-{3-[2,2,2-trifluoro-1-(thiazol-5-yl)ethoxy]-quinoxalin-2-yl}benzenesulfonamide] | > 6.00
6 | Cc1ncc(C(Oc2nc3ccccc3nc2NS(=O)(=O)c2ccccc2Cl)C(F)(F)F)n1C (centres unmarked) [Compound 115, 2-chloro-N-{3-[2,2,2-trifluoro-1-(1,2-dimethyl-1H-imidazol-5-yl)ethoxy]quinoxalin-2-yl}benzenesulfonamide] | > 6.00
7 | O=S(=O)(Nc1nc2ccccc2nc1OC(C1CCOCC1)C(F)(F)F)c1ccccc1Cl (centres unmarked) [Compound 116, 2-chloro-N-{3-[2,2,2-trifluoro-1-(tetrahydro-2H-pyran-4-yl)ethoxy]quinoxalin-2-yl}benzenesulfonamide] | > 6.00
8 | O=S(=O)(Nc1nc2ccccc2nc1OC(C1CC1)C(F)(F)F)c1ccccc1Cl (centres unmarked) [Compound 117, 2-chloro-N-[3-(1-cyclopropyl-2,2,2-trifluoroethoxy)-quinoxalin-2-yl]benzenesulfonamide] | > 6.00
9 | O=S(=O)(Nc1nc2ccccc2nc1OC(C1CCCCC1)C(F)(F)F)c1ccccc1Cl (centres unmarked) [Compound 118, 2-chloro-N-[3-(1-cyclohexyl-2,2,2-trifluoroethoxy)-quinoxalin-2-yl]benzenesulfonamide] | > 6.00
10 | Cc1noc(C)c1S(=O)(=O)Nc1nc2ccccc2nc1OC(C1CCOCC1)C(F)(F)F (centres unmarked) [Compound 119, 3,5-dimethyl-N-{3-[2,2,2-trifluoro-1-(tetrahydro-2H-pyran-4-yl)ethoxy]quinoxalin-2-yl}isoxazole-4-sulfonamide] | > 6.00
11 | Cc1nn(C)c(Cl)c1S(=O)(=O)Nc1nc2ccccc2nc1OC(C1CCOCC1)C(F)(F)F (centres unmarked) [Compound 120, 5-chloro-1,3-dimethyl-N-{3-[2,2,2-trifluoro-1-(tetrahydro-2H-pyran-4-yl)ethoxy]quinoxalin-2-yl}-1H-pyrazole-4-sulfonamide] | > 6.00
12 | CC1(C(Oc2nc3ccccc3nc2NS(=O)(=O)c2ccccc2Cl)C(F)(F)F)CCOCC1 (centres unmarked) [Compound 121, 2-chloro-N-{3-[2,2,2-trifluoro-1-(4-methyltetrahydro-2H-pyran-4-yl]ethoxy}quinoxalin-2-yl)benzenesulfonamide] | > 6.00
13 | O=S(=O)(Nc1nc2ccccc2nc1OC(c1cnc(Br)s1)C(F)(F)F)c1ccccc1Cl (centres unmarked) [Compound 126, 2-chloro-N-{3-[2,2,2-trifluoro-1-(2-bromothiazol-5-yl)-ethoxy]quinoxalin-2-yl}benzenesulfonamide] | > 6.00
14 | Cn1c(C(Oc2nc3ccccc3nc2NS(=O)(=O)c2ccccc2Cl)C(F)(F)F)cc2ccccc21 (centres unmarked) [Compound 127, 2-chloro-N-{3-[2,2,2-trifluoro-1-(1-methyl-1H-indol-2-yl)-ethoxy]quinoxalin-2-yl}benzenesulfonamide] | > 6.00
15 | Cc1noc(C)c1S(=O)(=O)Nc1nc2ccccc2nc1OC(c1cc2ccccc2n1C)C(F)(F)F (centres unmarked) [Compound 128, 3,5-dimethyl-N-{3-[2,2,2-trifluoro-1-(1-methyl-1H-indol-2-yl)ethoxy]quinoxalin-2-yl}isoxazole-4-sulfonamide] | > 6.00
16 | Cc1nn(C)c(Cl)c1S(=O)(=O)Nc1nc2ccccc2nc1OC(c1cc2ccccc2n1C)C(F)(F)F (centres unmarked) [Compound 129, 5-chloro-1,3-dimethyl-N-{3-[2,2,2-trifluoro-1-(1-methyl-1H-indol-2-yl)ethoxy]quinoxalin-2-yl}-1H-pyrazole-4-sulfonamide] | > 6.00
17 | Cc1nn(C)c(Cl)c1S(=O)(=O)Nc1nc2ccccc2nc1OC(C1CCSCC1)C(F)(F)F (centres unmarked) [Compound 130, 5-chloro-1,3-dimethyl-N-{3-[2,2,2-trifluoro-1-(tetrahydro-2H-thiopyran-4-yl)ethoxy]quinoxalin-2-yl}-1H-pyrazole-4-sulfonamide] | > 6.00
18 | Cc1noc(C)c1S(=O)(=O)Nc1nc2ccccc2nc1OC(C1CCSCC1)C(F)(F)F (centres unmarked) [Compound 131, 3,5-dimethyl-N-{3-[2,2,2-trifluoro-1-(tetrahydro-2H-thiopyran-4-yl)ethoxy]quinoxalin-2-yl}isoxazole-4-sulfonamide] | > 6.00
19 | O=S(=O)(Nc1nc2ccccc2nc1OC(c1cnc(-c2ccccc2)s1)C(F)(F)F)c1ccccc1Cl (centres unmarked) [Compound 134, 2-chloro-N-{3-[2,2,2-trifluoro-1-(2-phenylthiazol-5-yl)-ethoxy]quinoxalin-2-yl}benzenesulfonamide] | > 6.00
20 | CCCS(=O)(=O)Nc1nc2ccccc2nc1OC(c1cc2ccccc2n1C)C(F)(F)F (centres unmarked) [Compound 135, N-{3-[2,2,2-trifluoro-1-(1-methyl-1H-indol-2-yl)ethoxy]-quinoxalin-2-yl}propane-1-sulfonamide] | > 6.00
21 | O=S(=O)(Nc1nc2ccccc2nc1OC(C1CCOC1)C(F)(F)F)c1ccccc1Cl (centres unmarked) [Compound 136, 2-chloro-N-{3-[2,2,2-trifluoro-1-(tetrahydrofuran-3-yl)-ethoxy]quinoxalin-2-yl}benzenesulfonamide] | > 6.00
22 | Cc1nn(C)c(Cl)c1S(=O)(=O)Nc1nc2ccccc2nc1OC(c1cccnc1)C(F)(F)F (centres unmarked) [Compound 141, 5-chloro-1,3-dimethyl-N-{3-[2,2,2-trifluoro-1-(pyridin-3-yl)ethoxy]quinoxalin-2-yl}-1H-pyrazole-4-sulfonamide] | > 6.00
23 | Cc1cc(S(=O)(=O)Nc2nc3ccccc3nc2OC(c2cccnc2)C(F)(F)F)c(C(F)(F)F)o1 (centres unmarked) [Compound 143, 5-methyl-N-{3-[2,2,2-trifluoro-1-(pyridin-3-yl)ethoxy]-quinoxalin-2-yl}-2-(trifluoromethyl)furan-3-sulfonamide] | > 6.00
24 | O=S(=O)(Nc1nc2ccccc2nc1OC(c1cccnc1)C(F)(F)F)C1CC1 (centres unmarked) [Compound 150, N-{3-[2,2,2-trifluoro-1-(pyridin-3-yl)ethoxy]quinoxalin-2-yl}cyclopropanesulfonamide] | > 6.00

Further lines, results first:

Row | pIC50 | Structure (SMILES)
25 | > 6.00 | O=S(=O)(Nc1nc2ccccc2nc1OC(c1cccnc1)C(F)(F)F)c1ccccc1 (centres unmarked) [Compound 137, N-{3-[2,2,2-trifluoro-1-(pyridin-3-yl)ethoxy]quinoxalin-2-yl}benzenesulfonamide]
26 | > 6.00 | O=S(=O)(Nc1nc2ccccc2nc1OC(c1cccnc1)C(F)(F)F)c1ccccc1Cl (centres unmarked) [Compound 138, 2-Chloro-N-{3-[2,2,2-trifluoro-1-(pyridin-3-yl)ethoxy]-quinoxalin-2-yl}benzenesulfonamide]
27 | > 6.00 | O=S(=O)(Nc1nc2ccccc2nc1OC(c1cccnc1)C(F)(F)F)c1cccnc1 (centres unmarked) [Compound 139, N-{3-[2,2,2-trifluoro-1-(pyridin-3-yl)ethoxy]quinoxalin-2-yl}pyridine-3-sulfonamide]
28 | > 6.00 | O=S(=O)(Nc1nc2ccccc2nc1OC(c1cccnc1)C(F)(F)F)c1cccs1 (centres unmarked) [Compound 140, N-{3-[2,2,2-trifluoro-1-(pyridin-3-yl)ethoxy]quinoxalin-2-yl}thiophene-2-sulfonamide]
29 | > 6.00 | O=S(=O)(Nc1nc2ccccc2nc1OC(c1cccnc1)C(F)(F)F)c1ccccc1F (centres unmarked) [Compound 144, 2-fluoro-N-{3-[2,2,2-trifluoro-1-(pyridin-3-yl)ethoxy]-quinoxalin-2-yl}benzenesulfonamide]
30 | > 6.00 | O=S(=O)(Nc1nc2ccccc2nc1OC(c1cccnc1)C(F)(F)F)c1ccc(Cl)s1 (centres unmarked) [Compound 146, 5-chloro-N-{3-[2,2,2-trifluoro-1-(pyridin-3-yl)ethoxy]-quinoxalin-2-yl}thiophene-2-sulfonamide]
31 | > 6.00 | O=S(=O)(Cc1ccccc1)Nc1nc2ccccc2nc1OC(c1cccnc1)C(F)(F)F (centres unmarked) [Compound 147, 1-phenyl-N-{3-[2,2,2-trifluoro-1-(pyridin-3-yl)ethoxy]-quinoxalin-2-yl}methanesulfonamide]
32 | 5.00 to 6.00 | CS(=O)(=O)Nc1nc2ccccc2nc1OC(c1cccnc1)C(F)(F)F (centres unmarked) [Compound 148, N-{3-[2,2,2-trifluoro-1-(pyridin-3-yl)ethoxy]quinoxalin-2-yl}methanesulfonamide]
33 | > 6.00 | O=S(=O)(Nc1nc2ccccc2nc1OC(c1cccnc1)C(F)(F)F)c1ccccc1OC(F)(F)F (centres unmarked) [Compound 151, N-{3-[2,2,2-trifluoro-1-(pyridin-3-yl)ethoxy]quinoxalin-2-yl}-2-(trifluoromethoxy)benzenesulfonamide]
34 | > 6.00 | O=S(=O)(Nc1nc2ccccc2nc1OC(c1cccnc1)C(F)(F)F)c1cc(Cl)cc(Cl)c1 (centres unmarked) [Compound 152, 3,5-dichloro-N-{3-[2,2,2-trifluoro-1-(pyridin-3-yl)ethoxy]-quinoxalin-2-yl}benzenesulfonamide]
35 | > 6.00 | O=S(=O)(Nc1nc2ccccc2nc1OC(c1cccnc1)C(F)(F)F)c1cc(F)cc(F)c1 (centres unmarked) [Compound 153, 3,5-difluoro-N-{3-[2,2,2-trifluoro-1-(pyridin-3-yl)ethoxy]-quinoxalin-2-yl}benzenesulfonamide]
